These results are taken from ChEMBL document CHEMBL1201862, “PubChem BioAssay data set” (2004).

Test systems include OVCAR-3; SNB-19; UACC-62; U-251; OVCAR-4; 786-0; SF-295; SN12C; HCT-15; IGROV-1; MOLT-4; OVCAR-5; UACC-257; A549; HT-29; HOP-62; HL-60; SK-MEL-28; SR.
Holding throughout (assay): NCI-60 cell line screen, 48 h

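Step 1: Grow cells in 96-well plates. Step 2: Expose to compound for 48 hours at 5 concentrations. Step 3: Interpolate endpoints linearly; if unreached, use highest concentration. At the GI50, growth is halved.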 Calls of active or inactive are those of the source. Rule as the data show it: active = GI50 up to about 1.1 µM and inactive = higher.

In the case of `Cc1cc(N(CCC#N)CCC#N)ccc1/N=N/c1ccc(S(N)(=O)=O)cc1`, the GI50 with OVCAR-3, with SNB-19, with UACC-62, in the experiment with U-251, with OVCAR-4 and in the experiment with 786-0 was > 100 µM (inactive) each time. Besides, the GI50 in the experiment on SF-295 is > 100 µM (inactive); with SN12C, > 100 µM (inactive); with HCT-15, greater than 100 µM; with IGROV-1, > 100 µM (inactive); with MOLT-4 it was > 100 µM (inactive); in the experiment with OVCAR-5 it was > 100 µM (inactive). The GI50 in the experiment on UACC-257, in the experiment with A549, with HT-29, in the experiment on HOP-62, with HL-60 and with SK-MEL-28 was > 100 µM (inactive) each time.
On to `CCOC(=O)C1=C(NC)OC/C1=N\NC(=O)c1ccccc1O`, for which the GI50 in the experiment on OVCAR-3 was 19.9 µM (inactive); in the experiment with SNB-19, 12.7 µM (inactive); in the experiment on UACC-62, 7.03 µM (inactive); in the experiment on U-251 it was 19.3 µM (inactive); with OVCAR-4, 16.3 µM (inactive); in the experiment on 786-0 it was 33.4 µM (inactive). Also, the GI50 with SF-295 was 50.9 µM (inactive); with SN12C, 45.9 µM (inactive); in the experiment with IGROV-1, 7.21 µM (inactive); in the experiment with MOLT-4, 22.9 µM (inactive); in the experiment with OVCAR-5, 48.3 µM (inactive); in the experiment with UACC-257, 1.49 µM (inactive). For the same compound, the GI50 was 32.1 µM (inactive) in the experiment with A549, 28 µM (inactive) in the experiment on HOP-62, 19.3 µM (inactive) in the experiment with HL-60 and 30.8 µM (inactive) in the experiment on SK-MEL-28.
On to `COc1cc2c3c(c1OC)/C(=N/OS(=O)(=O)c1ccc(C)cc1)CC3N(S(=O)(=O)c1ccc(C)cc1)CC2` (stereo not drawn), for which the GI50 in the experiment on OVCAR-3, in the experiment on SNB-19, in the experiment on UACC-62, with U-251, in the experiment with OVCAR-4 and in the experiment on 786-0 was > 100 µM (inactive) in each case. Also, the GI50 in the experiment on SF-295, in the experiment with SN12C, in the experiment on IGROV-1, in the experiment on OVCAR-5, in the experiment on UACC-257 and with A549 was > 100 µM (inactive) in each case. Besides, the GI50 in the experiment on HT-29, in the experiment on HOP-62, in the experiment with HL-60 and with SK-MEL-28 was > 100 µM (inactive) each time.
As for `CCOc1ccccc1C=C1c2ccccc2C(=O)c2ccccc21`, the GI50 in the experiment on OVCAR-3 was 2.5 µM (inactive); in the experiment with SNB-19, 3.63 µM (inactive); in the experiment on UACC-62, 3.34 µM (inactive); with U-251 it was 4.37 µM (inactive); in the experiment on OVCAR-4, 22.1 µM (inactive); with 786-0, 3.38 µM (inactive). Moreover, the GI50 is 3.82 µM (inactive) with SF-295; 6.56 µM (inactive) with SN12C; 0.804 µM in the experiment with HCT-15; 3.58 µM (inactive) in the experiment on IGROV-1; 4.3 µM (inactive) in the experiment with MOLT-4; 12.8 µM (inactive) in the experiment on OVCAR-5. Further, the GI50 is 4.21 µM (inactive) in the experiment on UACC-257; 5.16 µM (inactive) with A549; 3.76 µM (inactive) with HOP-62; 2.99 µM (inactive) in the experiment on HL-60; 12 µM (inactive) with SK-MEL-28.
Regarding `NC(=O)/C(=N\NC(=O)c1cc2ccccc2cc1O)C1C(=O)N(c2ccccc2)N=C1N` (stereo not drawn), the GI50 in the experiment on OVCAR-3 is 28 µM (inactive); in the experiment on SNB-19 it was 65.3 µM (inactive); in the experiment on UACC-62 it was 15.2 µM (inactive); in the experiment on U-251 it was 30.3 µM (inactive); in the experiment on OVCAR-4 it was 22.6 µM (inactive); with 786-0 it was 40 µM (inactive). For the same compound, the GI50 in the experiment with SF-295 was 33 µM (inactive); in the experiment on SN12C it was 40.5 µM (inactive); in the experiment on IGROV-1 it was 21.1 µM (inactive); in the experiment with MOLT-4, 21.4 µM (inactive); with OVCAR-5 it was 22.2 µM (inactive); with UACC-257, 23.4 µM (inactive). The GI50 in the experiment on A549 was 30.6 µM (inactive); with HT-29, 44.2 µM (inactive); with HOP-62, 34 µM (inactive); in the experiment with HL-60, 6 µM (inactive); in the experiment with SK-MEL-28 it was 73.6 µM (inactive).
Turning to `CCOC(=O)Cc1ccc2c(c1O)C(=O)c1c(ccc(CC(=O)OCC)c1O)C2=O`, the GI50 in the experiment on OVCAR-3 was 47.8 µM (inactive); in the experiment on SR, > 100 µM (inactive); with SNB-19 it was > 100 µM (inactive); in the experiment with UACC-62 it was > 100 µM (inactive); in the experiment with U-251, 83.8 µM (inactive); with 786-0, > 100 µM (inactive). Also, the GI50 with SF-295 was > 100 µM (inactive); in the experiment on SN12C, > 100 µM (inactive); in the experiment with MOLT-4 it was 87.9 µM (inactive); with OVCAR-5, > 100 µM (inactive); in the experiment with UACC-257, > 100 µM (inactive); in the experiment with A549 it was > 100 µM (inactive). The GI50 with HT-29 was > 100 µM (inactive); in the experiment with HOP-62 it was > 100 µM (inactive); in the experiment on HL-60, > 100 µM (inactive); in the experiment on SK-MEL-28, 96.2 µM (inactive).
Regarding `S=P1(c2ccccc2)Nc2ccc(Cl)cc2N1` (stereo not drawn), the GI50 in the experiment on OVCAR-3 was > 100 µM (inactive); in the experiment with SNB-19, > 100 µM (inactive); with UACC-62 it was 8.09 µM (inactive); with U-251, > 100 µM (inactive); in the experiment on OVCAR-4 it was 6.49 µM (inactive); in the experiment on 786-0, > 100 µM (inactive). In addition, the GI50 with SF-295 is > 100 µM (inactive); with HCT-15, 58.5 µM; with IGROV-1, 35.5 µM (inactive); with MOLT-4, 20 µM (inactive); in the experiment with OVCAR-5, > 100 µM (inactive); in the experiment with UACC-257, > 100 µM (inactive). The GI50 is > 100 µM (inactive) in the experiment with A549; > 100 µM (inactive) with HT-29; > 100 µM (inactive) with HOP-62; 7.48 µM (inactive) with HL-60; > 100 µM (inactive) with SK-MEL-28.
Consider `COc1ccccc1NC(=O)CC(=O)N1N=C(C)C(/N=N/c2ccc(S(N)(=O)=O)cc2)C1=O` (stereo not drawn), for which the GI50 in the experiment on OVCAR-3, with SR, with SNB-19, with UACC-62, in the experiment on U-251 and with OVCAR-4 was > 100 µM (inactive) each time. The GI50 in the experiment with 786-0 was > 100 µM (inactive); in the experiment with SF-295, > 100 µM (inactive); in the experiment on SN12C, > 100 µM (inactive); with HCT-15, greater than 100 µM; with IGROV-1, > 100 µM (inactive); in the experiment with MOLT-4, > 100 µM (inactive). Besides, the GI50 in the experiment with OVCAR-5, in the experiment with UACC-257, in the experiment with A549, in the experiment on HT-29, with HOP-62 and with SK-MEL-28 was > 100 µM (inactive) in each case.
On to `O=C(O)C1=CCCc2ccc3ccccc3c21`, for which the GI50 in the experiment with OVCAR-3, in the experiment on SNB-19, with UACC-62, in the experiment with U-251, in the experiment with OVCAR-4 and in the experiment with 786-0 was > 100 µM (inactive) each time. Besides, the GI50 in the experiment with SF-295 is > 100 µM (inactive); in the experiment with SN12C, > 100 µM (inactive); in the experiment with HCT-15, greater than 100 µM; with IGROV-1 it was > 100 µM (inactive); in the experiment on MOLT-4, > 100 µM (inactive); in the experiment with OVCAR-5 it was > 100 µM (inactive). Further, the GI50 in the experiment with UACC-257, with A549, in the experiment with HT-29 and with SK-MEL-28 was > 100 µM (inactive) throughout.
For `COc1cccc(NC(=O)CC(=O)N2N=C(N3c4ccccc4Sc4ccccc43)CC2c2ccccc2)c1` (stereo not drawn), the GI50 with OVCAR-3, in the experiment on SR, in the experiment with SNB-19, in the experiment on UACC-62, with U-251 and with OVCAR-4 was > 100 µM (inactive) throughout. For the same compound, the GI50 in the experiment with 786-0 is > 100 µM (inactive); in the experiment with SF-295 it was > 100 µM (inactive); with SN12C it was > 100 µM (inactive); in the experiment on HCT-15, greater than 100 µM; in the experiment on IGROV-1, > 100 µM (inactive); with MOLT-4 it was > 100 µM (inactive). Moreover, the GI50 with OVCAR-5, with UACC-257, in the experiment on A549, with HT-29, in the experiment with HOP-62 and in the experiment with SK-MEL-28 was > 100 µM (inactive) in each case.
As to `O=C(Nc1cc([N+](=O)[O-])cc([N+](=O)[O-])c1)OC1C2CCC1C1OC1C2` (stereo not drawn), the GI50 in the experiment on OVCAR-3 is 29.6 µM (inactive); in the experiment on SNB-19, > 50 µM (inactive); in the experiment with UACC-62, > 50 µM (inactive); with U-251, > 50 µM (inactive); in the experiment on OVCAR-4, > 50 µM (inactive); in the experiment on 786-0, > 50 µM (inactive). The GI50 in the experiment with SF-295 is > 50 µM (inactive); in the experiment on HCT-15, greater than 50 µM; in the experiment with IGROV-1, > 50 µM (inactive); with MOLT-4, 34.5 µM (inactive); in the experiment with OVCAR-5, > 50 µM (inactive); in the experiment with UACC-257, 32.4 µM (inactive). Besides, the GI50 is > 50 µM (inactive) in the experiment with A549, > 50 µM (inactive) with HOP-62, 32.1 µM (inactive) in the experiment with HL-60 and > 50 µM (inactive) in the experiment on SK-MEL-28.
Regarding `O=C1CCCCC/C1=C\c1ccc(Cl)cc1`, the GI50 in the experiment on OVCAR-3 was 47.8 µM (inactive); with SR, 23.1 µM (inactive); with SNB-19, 55.1 µM (inactive); in the experiment on UACC-62, 25.2 µM (inactive); in the experiment with U-251, 30 µM (inactive); with OVCAR-4, 26.7 µM (inactive). The GI50 was 32.4 µM (inactive) in the experiment on 786-0; 22 µM (inactive) with SF-295; 35.3 µM (inactive) in the experiment on SN12C; 28.1 µM with HCT-15; 67.6 µM (inactive) in the experiment on IGROV-1; 26.2 µM (inactive) in the experiment with MOLT-4. In addition, the GI50 in the experiment on OVCAR-5 is 78.9 µM (inactive); in the experiment on UACC-257, 32.4 µM (inactive); with A549 it was 36.1 µM (inactive); in the experiment with HT-29 it was 21.8 µM (inactive); with HOP-62, 99.8 µM (inactive); in the experiment on SK-MEL-28, 49.3 µM (inactive).
